Assay results from PubChem BioAssay AID2060602 (Molecular Pharmacology Branch, DTP, NCI, 2025).

Test system: 648629-189-R-J1-PDC complex spheroids viability
Assay: Anticancer human tumor 648629-189-R-J1-PDC patient-derived bladder carcinoma cell line growth inhibition [CLK]
Conditions: for IC50: curve of first compound; for viability, T/C: stronger effect = lower value
Outline: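 Patient-derived tumor cells grown as complex spheroids with HUVEC endothelial cells and mesenchymal stem cells, treated with drug combinations. Concentrations descend in half-log steps from near clinical Cmax, or from 10 microM if Cmax unknown.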
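Wherever viability, T/C is given: drug exposure lasted seven days before viability readout; 100% = DMSO vehicle control wells.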

In the case of COC1C=CCC(C)C(C)S(=O)(=O)NC(=O)c2ccc3c(c2)N(CC2CCC21)CC1(CCCc2cc(Cl)ccc21)CO3 (configuration not stated) + CNC(=O)c1ccc(Nc2nc(OC3CCCC3)c3c(-c4ccc5nc(C)oc5c4)c[nH]c3n2)c(OC)c1, the IC50 (second compound 0.0316 µM) is reported as 1790 nM, the IC50 (second compound 0.1 µM) is reported as 1840 nM and the IC50 (second compound 0.316 µM) is reported as less than 31.6 nM. For the same molecule, the IC50 (second compound 1 µM) was less than 31.6 nM, the IC50 (second compound 3.16 µM) was less than 31.6 nM and the IC50 (second compound 10 µM) was less than 31.6 nM. The viability, T/C (second compound 0.0316 µM, first compound 0.0316 µM) was 107%, the viability, T/C (second compound 0.0316 µM, first compound 0.1 µM) was 89% and the viability, T/C (second compound 0.0316 µM, first compound 0.316 µM) was 91.6%. The viability, T/C (second compound 0.0316 µM, first compound 1 µM) was 80.7%, the viability, T/C (second compound 0.0316 µM, first compound 3.16 µM) was 20.1% and the viability, T/C (second compound 0.0316 µM, first compound 10 µM) was 4.12%. It also gave a viability, T/C (second compound 0.1 µM, first compound 0.0316 µM) of 82.8%, a viability, T/C (second compound 0.1 µM, first compound 0.1 µM) of 97.5% and a viability, T/C (second compound 0.1 µM, first compound 0.316 µM) of 83.8%. The viability, T/C (second compound 0.1 µM, first compound 1 µM) was 88.5%, the viability, T/C (second compound 0.1 µM, first compound 3.16 µM) was 16.3% and the viability, T/C (second compound 0.1 µM, first compound 10 µM) was 4.69%. It also gave a viability, T/C (second compound 0.316 µM, first compound 0.0316 µM) of 27.2%, a viability, T/C (second compound 0.316 µM, first compound 0.1 µM) of 23.6% and a viability, T/C (second compound 0.316 µM, first compound 0.316 µM) of 24.2%. For the same molecule, the viability, T/C (second compound 0.316 µM, first compound 1 µM) was 14%, the viability, T/C (second compound 0.316 µM, first compound 3.16 µM) was 8.44% and the viability, T/C (second compound 0.316 µM, first compound 10 µM) was 2.86%. For the same molecule, the viability, T/C (second compound 1 µM, first compound 0.0316 µM) was 19.5%, the viability, T/C (second compound 1 µM, first compound 0.1 µM) was 20.7% and the viability, T/C (second compound 1 µM, first compound 0.316 µM) was 16.3%. It also gave a viability, T/C (second compound 1 µM, first compound 1 µM) of 10.1%, a viability, T/C (second compound 1 µM, first compound 3.16 µM) of 6.11% and a viability, T/C (second compound 1 µM, first compound 10 µM) of 3.77%. The viability, T/C (second compound 3.16 µM, first compound 0.0316 µM) was 21.5%, the viability, T/C (second compound 3.16 µM, first compound 0.1 µM) was 18.3% and the viability, T/C (second compound 3.16 µM, first compound 0.316 µM) was 16.7%. It also gave a viability, T/C (second compound 3.16 µM, first compound 1 µM) of 10.5%, a viability, T/C (second compound 3.16 µM, first compound 3.16 µM) of 6.62% and a viability, T/C (second compound 3.16 µM, first compound 10 µM) of 3.31%. It also gave a viability, T/C (second compound 10 µM, first compound 0.0316 µM) of 17.1%, a viability, T/C (second compound 10 µM, first compound 0.1 µM) of 16.5% and a viability, T/C (second compound 10 µM, first compound 0.316 µM) of 15.2%. It also gave a viability, T/C (second compound 10 µM, first compound 1 µM) of 11.4%, a viability, T/C (second compound 10 µM, first compound 3.16 µM) of 6.23% and a viability, T/C (second compound 10 µM, first compound 10 µM) of 3.81%.
